Measurements taken from patent publication US6455528B1, “Piperazine compounds and medicinal use thereof” (Mitsubishi Pharma Corporation, priority 1997, dated 2002).
Structures can show the parent of a compound that is named as a salt.

Columns and labels:
TNF-α production = assay: Effect on TNF-α production in mice (in vivo), LPS-induced; conditions: serum TNF-α 90 min after LPS 500 μg/kg i.p.; test compound orally 30 min before LPS; ratio relative to test compound non-administration group
Description: (§1) Since the TNF-α concentration in serum reaches a peak at 90 min after LPS administration, the TNF-α concentration in the serum at this point was measured using FACTOR TEST mTNF-α (manufactured by Genzyme) and the IL-10 concentration at the same point of time was also measured using Murine IL-10 ELISA Kit (manufactured by Endogen). […] The effect of the test compound on the TNF-α production and IL-10 production was calculated by the following formula as the ratio relative to the test compound non-administration group.

IL-10 production = assay: Effect on IL-10 production in mice (in vivo), LPS-induced; conditions: serum IL-10 90 min after LPS 500 μg/kg i.p.; test compound orally 30 min before LPS; ratio relative to test compound non-administration group
Description: as §1

SMILES | melting point | TNF-α production (%) (TNF-α production) | IL-10 production (%) (IL-10 production)
CC(=O)NC(C)c1ccc(CN2CCN(c3ccccc3)CC2)cc1 (centres unmarked) [Example 58, N-(1-(4-((4-Phenylpiperazin-1-yl)methyl)phenyl)ethyl)acetamide Dihydrochloride 1/4 Hydrate] |  | 19% | 499%
CC(=O)NC1(c2ccc(C(C)N3CCN(c4ccc(F)cc4)CC3)cc2)CC1 (centres unmarked) [Example 67, N-(1-(4-(1-(4-(4-Fluorophenyl)piperazin-1-yl)ethyl)phenyl)cyclopropyl)acetamide] | 149 to 150 °C |  | 
CC(=O)NC1(c2ccc(C(C)N3CCN(c4ncccn4)CC3)cc2)CC1 (centres unmarked) [Example 70, N-(1-(4-(1-(4-(Pyrimidin-2-yl)piperazin-1-yl)ethyl)phenyl)cyclopropyl)acetamide] | 124 to 125 °C |  | 
CC(=O)NC1(c2ccc(CN3CCN(c4ncccn4)CC3)cc2)CC1 [Example 71, N-(1-(4-((4-(Pyrimidin-2-yl)piperazin-1-yl)methyl)phenyl)cyclopropyl)acetamide] | 145 to 146 °C |  | 
NCc1ccc(CN2CCN(c3ncccn3)CC2)cc1 [Example 74, 2-(4-(4-(Aminomethyl)phenylmethyl)-piperazin-1-yl)pyrimidine] | 70 to 72 °C |  | 
O=CNCc1ccc(CN2CCN(c3ncccn3)CC2)cc1 [Example 76, N-(4-((4-(Pyrimidin-2-yl)piperazin-1-yl)methyl)phenylmethyl)formamide] | 97 to 98 °C |  | 
CC(=O)NCc1ccc(CN2CCN(c3nc(F)cc(F)n3)CC2)cc1 [Example 78, N-(4-((4-(4,6-Difluoropyrimidin-2-yl)piperazin-1-yl)methyl)phenylmethyl)acetamide] | 128 to 129 °C |  | 
CC(=O)NCc1ccc(CN2CCN(c3cc(F)nc(F)n3)CC2)cc1 [Example 79, N-(4-((4-(2,6-Difluoropyrimidin-4-yl)piperazin-1-yl)methyl)phenylmethyl)acetamide] | 127 to 128 °C |  | 
CC(=O)NCc1ccc(CN2CCN(c3nc(Cl)cc(Cl)n3)CC2)cc1 [Example 80, N-(4-((4-(4,6-Dichloropyrimidin-2-yl)piperazin-1-yl)methyl)phenylmethyl)acetamide] | 139 to 140 °C |  | 
CC(=O)NCc1ccc(CN2CCN(c3nccs3)CC2)cc1 [Example 81, N-(4-((4-(Thiazol-2-yl)piperazin-1-yl)methyl)phenylmethyl)acetamide Hydrochloride 1/2 Hydrate] |  | 11% | 1035%
CC(=O)NCc1ccc(CN2CCN(c3ccncc3)CC2)cc1 [Example 84, N-(4-((4-(Pyridin-4-yl)piperazin-1-yl)methyl)phenylmethyl)acetamide] | 164 to 166 °C |  | 
CC(=O)NCc1ccc(CN2CCN(c3ncc([N+](=O)[O-])s3)CC2)cc1 [Example 88, N-(4-((4-(5-Nitrothiazol-2-yl)piperazin-1-yl)methyl)phenylmethyl)acetamide] | 151 to 152 °C |  | 
CC(=O)NCc1ccc(CN2CCN(c3cc(Cl)nc(Cl)n3)CC2)cc1 [Example 89, N-(4-((4-(2,6-Dichloropyrimidin-4-yl)piperazin-1-yl)methyl)phenylmethyl)acetamide] | 165 to 166 °C |  | 
CC(=O)NCc1ccc(CN2CCN(c3nc(C)cc(C)n3)CC2)cc1 [Example 93, N-(4-((4-(4,6-Dimethylpyrimidin-2-yl)piperazin-1-yl)methyl)phenylmethyl)acetamide] | 127 to 128 °C |  | 
CC(=O)NC(C)(C)c1ccc(CN2CCN(c3nccs3)CC2)cc1 [Example 94, N-(1-Methyl-1-(4-((4-(thiazol-2-yl)piperazin-1-yl)methyl)phenyl)ethyl)acetamide] | 118 to 120 °C |  | 
COc1cc(OC)nc(N2CCN(Cc3ccc(C(C)(C)NC(C)=O)cc3)CC2)n1 [Example 96, N-(1-(4-((4-(4,6-Dimethoxypyrimidin-2-yl)piperazin-1-yl)methyl)phenyl)-1-methylethyl)acetamide] | 199 to 202 °C |  | 
CC(=O)NCc1ccc(CN2CCN(c3ccnc(Cl)n3)CC2)cc1 [Example 97, N-(4-((4-(2-Chloropyrimidin-4-yl)piperazin-1-yl)methyl)phenylmethyl)acetamide] | 132 to 133 °C |  | 
CC(=O)NCc1ccc(CN2CCN(c3nccc(Cl)n3)CC2)cc1 [Example 97, N-(4-((4-(4-chloropyrimidin-2-yl)piperazin-1-yl)methyl)phenylmethyl)acetamide] | 122 to 124 °C |  | 
CC(=O)NCc1ccc(CN2CCN(c3nccc(N(C)C)n3)CC2)cc1 [Example 99, N-(4-((4-(4-(N,N-Dimethylamino)pyrimidin-2-yl)piperazin-1-yl)methyl)phenylmethyl)acetamide] | 152 to 155 °C |  | 
CC(=O)NC1(c2ccc(CN3CCN(c4nccs4)CC3)cc2)CC1 [Example 100, N-(1-(4-((4-(Thiazol-2-yl)piperazin-1-yl)methyl)phenyl)cyclopropyl)acetamide] | 184 to 185 °C |  | 
COc1ccnc(N2CCN(Cc3ccc(C(C)(C)NC(C)=O)cc3)CC2)n1 [Example 106, N-(1-(4-((4-(4-Methoxypyrimidin-2-yl)piperazin-1-yl)methyl)phenyl)-1-methylethyl)acetamide] | 160 to 162 °C |  | 
CCOc1cc(OCC)nc(N2CCN(Cc3ccc(CNC(C)=O)cc3)CC2)n1 [Example 108, N-(4-((4-(4,6-Diethoxypyrimidin-2-yl)piperazin-1-yl)methyl)phenylmethyl)acetamide] | 119 to 120 °C |  | 
CC(=O)NCc1ccc(CN2CCN(c3nc(N(C)C)cc(N(C)C)n3)CC2)cc1 [Example 109, N-(4-((4-(4,6-bis(Dimethylamino)-pyrimidin-2-yl)piperazin-1-yl)methyl)phenylmethyl)acetamide] | 189 to 190 °C (dec.) |  | 
COc1cc(N(C)C)nc(N2CCN(Cc3ccc(CNC(C)=O)cc3)CC2)n1 [Example 110, N-(4-((4-(4-Dimethylamino-6-methoxypyrimidin-2-yl)piperazin-1-yl)methyl)phenylmethyl)acetamide] | 115 to 118 °C |  | 
CC(=O)NCc1ccc(CN2CCN(c3ncc(Br)s3)CC2)cc1 [Example 111, N-(4-((4-(5-Bromothiazol-2-yl)piperazin-1-yl)methyl)phenylmethyl)acetamide] | 160 to 163 °C |  | 
CC(=O)NCc1ccc(CN2CCN(c3ncc(Cl)s3)CC2)cc1 [Example 112, N-(4-((4-(5-Chlorothiazol-2-yl)piperazin-1-yl)methyl)phenylmethyl)acetamide] | 142 to 145 °C (dec.) |  | 
CC(=O)NC1(c2ccc(CN3CCN(c4cccc(F)n4)CC3)cc2)CC1 [Example 117, N-(1-(4-((4-(6-Fluoropyridin-2-yl)piperazin-1-yl)methyl)phenyl)cyclopropyl)acetamide] | 135 to 136 °C |  | 

The next lines start with results.

melting point | SMILES | TNF-α production (%) (TNF-α production) | IL-10 production (%) (IL-10 production)
124 to 126 °C | CC(=O)NC(C)c1ccc(CN2CCN(c3ncccn3)CC2)cc1 (centres unmarked) [Example 69, N-(1-(4-((4-(Pyrimidin-2-yl)piperazin-1-yl)methyl)phenyl)ethyl)acetamide] |  | 
155 to 156 °C | CC(=O)NCc1ccc(CN2CCN(c3ccc(Cl)cn3)CC2)cc1 [Example 86, N-(4-((4-(5-Chloropyridin-2-yl)piperazin-1-yl)methyl)phenylmethyl)acetamide] |  | 
118 to 119 °C | CC(=O)NCc1ccc(CN2CCN(c3cnccn3)CC2)cc1 [Example 87, N-(4-((4-(Pyrazin-2-yl)piperazin-1-yl)methyl)phenylmethyl)acetamide] |  | 
137 to 138 °C | CC(=O)NC(C)(C)c1ccc(CN2CCN(c3ncccn3)CC2)cc1 [Example 95, N-(1-Methyl-1-(4-((4-(pyrimidin-2-yl)piperazin-1-yl)methyl)phenyl)ethyl)acetamide] |  | 
136 to 137 °C | CC(=O)NC(C)c1ccc(CN2CCN(c3nccs3)CC2)cc1 (centres unmarked) [Example 101, N-(1-(4-((4-(Thiazol-2-yl)piperazin-1-yl)methyl)phenyl)ethyl)acetamide] |  | 
109 to 111 °C | CC(=O)NC(C)c1ccc(CN2CCN(c3cccc(F)n3)CC2)cc1 (centres unmarked) [Example 102, N-(1-(4-((4-(6-Fluoropyridin-2-yl)piperazin-1-yl)methyl)phenyl)ethyl)acetamide] |  | 
120 to 121 °C | CC(=O)NC(C)c1ccc(CN2CCN(c3ccccn3)CC2)cc1 (centres unmarked) [Example 104, N-(1-(4-((4-(Pyridin-2-yl)piperazin-1-yl)methyl)phenyl)ethyl)acetamide] |  | 
129 to 130 °C | CC(=O)NC(C)(C)c1ccc(CN2CCN(c3ccccn3)CC2)cc1 [Example 105, N-(1-Methyl-1-(4-((4-(pyridin-2-yl)piperazin-1-yl)methyl)phenyl)ethyl)acetamide] |  | 
113 to 115 °C | COc1ccnc(N2CCN(Cc3ccc(C(C)NC(C)=O)cc3)CC2)n1 (centres unmarked) [Example 107, N-(1-(4-((4-(4-Methoxypyrimidin-2-yl)piperazin-1-yl)methyl)phenyl)ethyl)acetamide] |  | 
145 to 147 °C | CC(=O)NC1(c2ccc(CN3CCN(c4ccccn4)CC3)cc2)CC1 [Example 118, N-(1-(4-((4-(Pyridin-2-yl)piperazin-1-yl)methyl)phenyl)cyclopropyl)acetamide] |  | 
114 to 115 °C | CC(=O)N[C@@H](C)c1ccc(CN2CCN(c3ccc(F)cc3)CC2)cc1 [Example 121, (S)-N-(1-(4-((4-(4-Fluorophenyl)piperazin-1-yl)methyl)phenyl)ethyl)acetamide] |  | 
114 to 115 °C | CC(=O)N[C@H](C)c1ccc(CN2CCN(c3ccc(F)cc3)CC2)cc1 [Example 122, (R)-N-(1-(4-((4-(4-fluorophenyl)piperazin-1-yl)methyl)phenyl)ethyl)acetamide] |  | 
